Where two headings read alike, the source gives them in different places. *1 amine or outer side, *2 acyl side, *3 side chain or, on linkers, in order; H or OH if unused. Where a SMILES comes first, the peptide text is derived from it. Bridges are numbered along the chain shown (N, C = ends). [ ]: non-standard residue; d: D form. The star is where a group is joined. 2Nal = N[C@@H](Cc1ccc2ccccc2c1)C(=O)O; AEF = NCCOc1ccc(C[C@H](N)C(=O)O)cc1; X1 = O=C(Cc1ccc(CN[*:1])cc1)[*:2]; 3Pal = N[C@@H](Cc1cccnc1)C(=O)O; αMeL = CC(C)C[C@](C)(N)C(=O)O; Orn = NCCC[C@H](N)C(=O)O; Pyrrolidide = C1CCN(*)C1; Dab = NCC[C@H](N)C(=O)O
Legend:
[1] = test system: IL-23R; conditions: see Examples of WO2023/099669; cited from earlier work
[2] = target: T1, human IL-23R (Homo sapiens, UniProt Q5VWK5); test: Binding assay: displacement of fluorophore (TAMRA)-labelled reference compound from human IL-23R (BRET, Nluc-IL23R fusion protein membranes); conditions: for Emax: read-out: % displacement (hIL-23R binding)
T1 construct: Nanoluc luciferase (Nluc); secretion signal encoded by the plasmid (not specified); expressed in transfected cells; crude membranes used in the assay
T1 sequence (Q5VWK5 22-629): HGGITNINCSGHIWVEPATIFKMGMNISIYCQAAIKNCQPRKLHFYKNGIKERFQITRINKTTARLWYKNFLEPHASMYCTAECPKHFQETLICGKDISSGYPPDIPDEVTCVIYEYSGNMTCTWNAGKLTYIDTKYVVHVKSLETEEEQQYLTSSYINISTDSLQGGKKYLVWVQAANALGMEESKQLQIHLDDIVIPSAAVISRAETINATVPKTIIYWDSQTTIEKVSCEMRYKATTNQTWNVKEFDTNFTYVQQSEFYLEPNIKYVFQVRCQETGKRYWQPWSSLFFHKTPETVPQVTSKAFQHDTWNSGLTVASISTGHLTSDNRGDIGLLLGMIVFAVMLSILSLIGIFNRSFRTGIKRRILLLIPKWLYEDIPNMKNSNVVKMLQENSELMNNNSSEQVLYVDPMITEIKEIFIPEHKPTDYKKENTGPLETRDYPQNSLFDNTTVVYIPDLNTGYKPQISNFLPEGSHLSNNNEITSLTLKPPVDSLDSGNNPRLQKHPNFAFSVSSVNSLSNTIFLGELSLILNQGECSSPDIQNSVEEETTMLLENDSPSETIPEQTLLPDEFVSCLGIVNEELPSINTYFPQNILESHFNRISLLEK

[3] = test system: IL-23 mediated STAT3 signalling (DB cells); test: Functional inhibition of IL-23 mediated STAT3 signalling (phospho-STAT3 Tyr705) in DB cells; format: cell-based, human; conditions: for hIL-23 (pSTAT3) antagonist % inhibition: Table 3-2, maximal inhibitory response, EC80 of hIL-23
Outline: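 Phospho-STAT3 in lysed DB cells quantified by MSD kit after 90 min exposure to EC80 human IL-23, following 15 min compound pretreatment (37° C, 5% CO2). IC50 and maximal inhibition derived from curves normalized between IL-23-only and buffer-only controls.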

[4] = Peptide stability in simulated intestinal fluid (SIF); format: in vitro ADME; conditions: pig, simulated intestinal fluid, SIF, pH 6.8, pancreatin, 37° C., 10 μM; for remaining at 4 h, 10 µM: read-out: SIF (% remaining 4 h)
Outline: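 Peptide at 10 μM final in USP-type SIF (10 g/L porcine pancreatin, phosphate buffer pH 6.8), shaken at 37 °C. Samples at 0, 1 and 4 h quenched in acetonitrile/0.1% formic acid and analysed by LC-HRMS. Percent remaining calculated from absolute peak areas relative to time zero.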

[5] = Peptide stability in simulated gastric fluid (SGF); format: in vitro ADME; conditions: pig, pH 1.2, pepsin, 37° C.
Outline: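 Peptide (10 μM final) incubated at 37 °C in USP SGF, pH 1.2 with porcine pepsin 3.2 g/L; aliquots at 0, 1 and 4 h quenched in acidified acetonitrile.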

[6] = Table 3-2, EC80 of hIL-23, read-out: hIL-23 (pSTAT3) antagonist IC50

In the case of “H-DC(1a)SE(2c)WQK(2c)WWLC(1a)R-[NH2] [Ref 5]”, the “inhibitory activity (in words), WO2023/099669” value (“inhibitory activity (in words)” below) [1] is given as “inactive”.
For “[Ac]-DK(1c)SC(2a)WQC(2a)WWLE(1c)R-[NH2] [Ref 7]”, the “inhibitory activity (in words)” value [1] is listed as “inactive”.
Compound `CNC(=O)[C@H](Cc1cccnc1)NC(=O)[C@H](CCN)NC(=O)[C@@H]1CCC(=O)NCc2ccc(cc2)CC(=O)N[C@@H](CO)C(=O)N[C@H]2CCC(=O)NCC[C@H](NC(=O)[C@H](CCC(=O)N3CCCC3)NC(=O)[C@H](Cc3c[nH]c4ccccc34)NC2=O)C(=O)N[C@@H](Cc2ccc(OCCN)cc2)C(=O)N[C@@H](Cc2ccc3ccccc3c2)C(=O)N[C@@](C)(CC(C)C)C(=O)N1` [Compound 27, [4-Aminomethyl-phenylacetyl](1c)*SE(2c)W[Q(pyrrolidin)][Dab](2c)[Y(2-aminoethoxy)][2-Nal][2-Me-Leu]E(1c)[Dab][3-(3-Pyridyl)-Ala]-[NHMe]] ([X1]SEWE(Pyrrolidide)[Dab][AEF][2Nal][αMeL]E[Dab][3Pal]-NHMe; lactam 3-6, N-10) has an IC50 [2] of 0.017 nM, an Emax [2] of 97% and an IC50 [3, 6] of 0.23 nM. For the same compound, the “hIL-23 (pSTAT3) antagonist % inhibition” value [3] was 100%, the remaining at 1 h, 10 µM [4] was 90% and the remaining at 4 h, 10 µM [4] was 85%. The remaining at 1 h, 10 µM [5] was 101% and the remaining at 4 h, 10 µM [5] was 96%.
Compound `CNC(=O)[C@H](Cc1cccnc1)NC(=O)[C@H](CCN)NC(=O)[C@@H]1CCC(=O)NCc2ccc(cc2)CC(=O)N[C@@H](CO)C(=O)N[C@H]2CCC(=O)NCC[C@H](NC(=O)[C@H](CCCN)NC(=O)[C@H](Cc3c[nH]c4ccccc34)NC2=O)C(=O)N[C@@H](Cc2ccc(OCCN)cc2)C(=O)N[C@@H](Cc2ccc3ccccc3c2)C(=O)N[C@@](C)(CC(C)C)C(=O)N1` [Compound 28, [4-Aminomethyl-phenylacetyl](1c)*SE(2c)W[Orn][Dab](2c)[Y(2-aminoethoxy)][2-Nal][2-Me-Leu]E(1c)[Dab][3-(3-Pyridyl)-Ala]-[NHMe]] ([X1]SEW[Orn][Dab][AEF][2Nal][αMeL]E[Dab][3Pal]-NHMe; lactam 3-6, N-10) has an IC50 [2] of 0.011 nM, an Emax [2] of 97% and an IC50 [3, 6] of 0.052 nM. The “hIL-23 (pSTAT3) antagonist % inhibition” value [3] was 101%, the remaining at 1 h, 10 µM [4] was 106% and the remaining at 1 h, 10 µM [5] was 100%.
With `CNC(=O)[C@H](Cc1cccnc1)NC(=O)[C@@H](CO)NC(=O)[C@@H]1CCC(=O)NCc2ccc(cc2)CC(=O)N[C@@H](CO)C(=O)N[C@H]2CCC(=O)NCC[C@H](NC(=O)[C@H](CCC(N)=O)NC(=O)[C@H](Cc3c[nH]c4ccccc34)NC2=O)C(=O)N[C@@H](Cc2ccc(OCCN)cc2)C(=O)N[C@@H](Cc2ccc3ccccc3c2)C(=O)N[C@@](C)(CC(C)C)C(=O)N1` [Compound 38, [4-Aminomethyl-phenylacetyl](1c)*SE(2c)WQ[Dab](2c)[Y(2-aminoethoxy)][2-Nal][2-Me-Leu]E(1c)[{d}S][3-(3-Pyridyl)-Ala]-[NHMe]] the Emax [2] was 102%, the IC50 [3, 6] was 1 nM and the “hIL-23 (pSTAT3) antagonist % inhibition” value [3] was 100%. For the same compound, the remaining at 1 h, 10 µM [4] was 82% and the remaining at 1 h, 10 µM [5] was 100%.
With `CNC(=O)[C@H](Cc1cccnc1)NC(=O)[C@H](CCN)NC(=O)[C@@H]1CCC(=O)NCc2ccc(cc2)CC(=O)N[C@@H](C)C(=O)N[C@H]2CCC(=O)NCC[C@H](NC(=O)[C@H](CCC(N)=O)NC(=O)[C@H](Cc3c[nH]c4ccccc34)NC2=O)C(=O)N[C@@H](Cc2c[nH]c3c(F)cccc23)C(=O)N[C@@H](Cc2ccc3ccccc3c2)C(=O)NC(C)(C)C(=O)N1` [Compound 47, [4-Aminomethyl-phenylacetyl](1c)*AE(2c)WQ[Dab](2c)[7-F-Trp][2-Nal][Aib]E(1c)[Dab][3-(3-Pyridyl)-Ala]-[NHMe]] the IC50 [2] was 0.069 nM, the IC50 [3, 6] was 0.33 nM and the “hIL-23 (pSTAT3) antagonist % inhibition” value [3] was 98%. It also gave a remaining at 1 h, 10 µM [4] of 97%, a remaining at 4 h, 10 µM [4] of 92% and a remaining at 1 h, 10 µM [5] of 103%. For the same compound, the remaining at 4 h, 10 µM [5] was 85%.
In the case of `CC(C)C[C@]1(C)NC(=O)[C@H](Cc2ccc3ccccc3c2)NC(=O)[C@H](Cc2ccc(OCCN)cc2)NC(=O)[C@@H]2CCNC(=O)CC[C@H](NC(=O)[C@H](CO)NC(=O)Cc3ccc(cc3)CNC(=O)CC[C@@H](C(=O)N[C@@H](CCN)C(=O)N[C@H](Cc3c[nH]cn3)C(N)=O)NC1=O)C(=O)N[C@@H](Cc1c[nH]c3ccccc13)C(=O)N[C@@H](CCC(N)=O)C(=O)N2` [Compound 13, [4-Aminomethyl-phenylacetyl](1c)*SE(2c)WQ[Dab](2c)[Y(2-aminoethoxy)][2-Nal][2-Me-Leu]E(1c)[Dab][{d}H]-[NH2]], the Emax [2] is reported as 100%, the IC50 ([3]; EC80 of hIL-23, read-out: IC50 (pSTAT3)) is reported as 6.8 nM and the IC50 [3, 6] is reported as 6.8 nM. For the same compound, the “hIL-23 (pSTAT3) antagonist % inhibition” value [3] was 99%, the remaining at 1 h, 10 µM [4] was 84% and the remaining at 1 h, 10 µM [5] was 94%.
With `CNC(=O)[C@H](Cc1cccnc1)NC(=O)[C@H](CCN)NC(=O)[C@@H]1CCC(=O)NCc2ccc(cc2)CC(=O)N[C@@H](CO)C(=O)N[C@H]2CCC(=O)NCC[C@H](NC(=O)[C@H](CCNC(C)=O)NC(=O)[C@H](Cc3c[nH]c4ccccc34)NC2=O)C(=O)N[C@@H](Cc2ccc(OCCN)cc2)C(=O)N[C@@H](Cc2ccc3ccccc3c2)C(=O)N[C@@](C)(CC(C)C)C(=O)N1` [Compound 25, [4-Aminomethyl-phenylacetyl](1c)*SE(2c)W[Dab(Ac)][Dab](2c)[Y(2-aminoethoxy)][2-Nal][2-Me-Leu]E(1c)[Dab][3-(3-Pyridyl)-Ala]-[NHMe]] ([X1]SEW[Dab](Ac)[Dab][AEF][2Nal][αMeL]E[Dab][3Pal]-NHMe; lactam 3-6, N-10) the IC50 [2] was 0.011 nM, the IC50 [3, 6] was 0.076 nM and the “hIL-23 (pSTAT3) antagonist % inhibition” value [3] was 100%. For the same compound, the remaining at 1 h, 10 µM [4] was 88% and the remaining at 1 h, 10 µM [5] was 93%.
For D(1c)*SC(2a)WQC(2a)WWLR(1c)* [Ref 6], the “inhibitory activity (in words)” value [1] is listed as “inactive”.
Work on `CC(C)C[C@]1(C)NC(=O)[C@H](Cc2ccc3ccccc3c2)NC(=O)[C@H](Cc2ccc(OCCN)cc2)NC(=O)[C@@H]2CCNC(=O)CC[C@H](NC(=O)[C@H](CO)NC(=O)Cc3ccc(cc3)CNC(=O)CC[C@@H](C(=O)N[C@@H](CCN)C(=O)N[C@@H](Cc3cn(C)cn3)C(N)=O)NC1=O)C(=O)N[C@@H](Cc1c[nH]c3ccccc13)C(=O)N[C@@H](CCC(N)=O)C(=O)N2` [Compound 14, [4-Aminomethyl-phenylacetyl](1c)*SE(2c)WQ[Dab](2c)[Y(2-aminoethoxy)][2-Nal][2-Me-Leu]E(1c)[Dab][H(Me)]-[NH2]] yielded an IC50 [2] of 0.11 nM, an Emax [2] of 102% and an IC50 [3, 6] of 7.2 nM. For the same compound, the “hIL-23 (pSTAT3) antagonist % inhibition” value [3] was 99%, the remaining at 1 h, 10 µM [4] was 98% and the remaining at 1 h, 10 µM [5] was 93%.
For `CNC(=O)[C@H](Cc1cccnc1)NC(=O)[C@](C)(CO)NC(=O)[C@@H]1CCC(=O)NCc2ccc(cc2)CC(=O)N[C@@H](CO)C(=O)N[C@H]2CCC(=O)NCC[C@H](NC(=O)[C@H](CCC(N)=O)NC(=O)[C@H](Cc3c[nH]c4ccccc34)NC2=O)C(=O)N[C@@H](Cc2ccc(OCCN)cc2)C(=O)N[C@@H](Cc2ccc3ccccc3c2)C(=O)N[C@@](C)(CC(C)C)C(=O)N1` [Compound 39, [4-Aminomethyl-phenylacetyl](1c)*SE(2c)WQ[Dab](2c)[Y(2-aminoethoxy)][2-Nal][2-Me-Leu]E(1c)[2-Me-Ser][3-(3-Pyridyl)-Ala]-[NHMe]], the IC50 [2] was 0.024 nM, the IC50 [3, 6] was 0.51 nM and the “hIL-23 (pSTAT3) antagonist % inhibition” value [3] was 101%. For the same compound, the remaining at 4 h, 10 µM [4] was 85% and the remaining at 4 h, 10 µM [5] was 96%.
